Marks after values point to notes of the source that are not given here.
Legend:
Topoisomerase II α human = molecular target: T1, Topoisomerase II α human (Homo sapiens, UniProt P11388); experiment: Isothermal titration calorimetry (ITC) of interactions with TOPIIα; assay type: binding; details: single compounds; for ∆G (kJ/mol) ITC / ∆H (kJ/mol) ITC: 36.6 °C, mean ± SD, n = 6
T1 construct: purchased Sigma Aldrich (St. Louis, MO, USA)
Method: The parameters of interactions of coffee and its components with TOPIIα were carried out using the isothermal titration calorimetry (ITC) (MicroCal PEAQ-ITC 200, Malvern, Worcestershire, UK). Analyses were carried out according to Grzelczyk et al., with some modifications. A calorimeter cell with a capacity of 0.2 mL was filled with 0.1 μmol/L of TOPIIα solution in ultrapure water (deionized, LC-MS grade); the syringe was subsequently filled with titrants as degassed aqueous solutions of chlorogenic acids (CHAs); green, light-, or dark-roasted coffee extracts; coffee fraction; before and after in vitro digestion, at concentrations of 10 mmol/L (coffee extracts at concentrations of 0.1 mmol/L calculated based on 5-caffeoylquinic acid). The measurements were carried out at 36.6 °C with continuous stirring at 307 rpm (10 injections, 25 min). During the ITC analysis, an exothermic or endothermic reaction was recorded, when the binding of compounds to the enzyme occurred. The heat was generated as a consequence of ligand-to-protein binding, which is observed as an energy peak (raw data of heat in […]). The titration of a ligand into water was performed to subtract the energetic effects of dilution. The enthalpy changes (∆H), Gibbs free energy changes (∆G), and entropy changes (∆S) were calculated from the ITC titration nonlinear least squares saturation curve fitting carried out using MicroCal PEAQ-ITC200 software 1.30 [40].

human topoisomerase IIα = system: human topoisomerase IIα; set-up: method as in PMID 18461976; details: 100 μM solutions; cited from earlier work
[1] = listed as 4,5-di-O-caffeoylquinic acid

T1 sequence (P11388 whole entry): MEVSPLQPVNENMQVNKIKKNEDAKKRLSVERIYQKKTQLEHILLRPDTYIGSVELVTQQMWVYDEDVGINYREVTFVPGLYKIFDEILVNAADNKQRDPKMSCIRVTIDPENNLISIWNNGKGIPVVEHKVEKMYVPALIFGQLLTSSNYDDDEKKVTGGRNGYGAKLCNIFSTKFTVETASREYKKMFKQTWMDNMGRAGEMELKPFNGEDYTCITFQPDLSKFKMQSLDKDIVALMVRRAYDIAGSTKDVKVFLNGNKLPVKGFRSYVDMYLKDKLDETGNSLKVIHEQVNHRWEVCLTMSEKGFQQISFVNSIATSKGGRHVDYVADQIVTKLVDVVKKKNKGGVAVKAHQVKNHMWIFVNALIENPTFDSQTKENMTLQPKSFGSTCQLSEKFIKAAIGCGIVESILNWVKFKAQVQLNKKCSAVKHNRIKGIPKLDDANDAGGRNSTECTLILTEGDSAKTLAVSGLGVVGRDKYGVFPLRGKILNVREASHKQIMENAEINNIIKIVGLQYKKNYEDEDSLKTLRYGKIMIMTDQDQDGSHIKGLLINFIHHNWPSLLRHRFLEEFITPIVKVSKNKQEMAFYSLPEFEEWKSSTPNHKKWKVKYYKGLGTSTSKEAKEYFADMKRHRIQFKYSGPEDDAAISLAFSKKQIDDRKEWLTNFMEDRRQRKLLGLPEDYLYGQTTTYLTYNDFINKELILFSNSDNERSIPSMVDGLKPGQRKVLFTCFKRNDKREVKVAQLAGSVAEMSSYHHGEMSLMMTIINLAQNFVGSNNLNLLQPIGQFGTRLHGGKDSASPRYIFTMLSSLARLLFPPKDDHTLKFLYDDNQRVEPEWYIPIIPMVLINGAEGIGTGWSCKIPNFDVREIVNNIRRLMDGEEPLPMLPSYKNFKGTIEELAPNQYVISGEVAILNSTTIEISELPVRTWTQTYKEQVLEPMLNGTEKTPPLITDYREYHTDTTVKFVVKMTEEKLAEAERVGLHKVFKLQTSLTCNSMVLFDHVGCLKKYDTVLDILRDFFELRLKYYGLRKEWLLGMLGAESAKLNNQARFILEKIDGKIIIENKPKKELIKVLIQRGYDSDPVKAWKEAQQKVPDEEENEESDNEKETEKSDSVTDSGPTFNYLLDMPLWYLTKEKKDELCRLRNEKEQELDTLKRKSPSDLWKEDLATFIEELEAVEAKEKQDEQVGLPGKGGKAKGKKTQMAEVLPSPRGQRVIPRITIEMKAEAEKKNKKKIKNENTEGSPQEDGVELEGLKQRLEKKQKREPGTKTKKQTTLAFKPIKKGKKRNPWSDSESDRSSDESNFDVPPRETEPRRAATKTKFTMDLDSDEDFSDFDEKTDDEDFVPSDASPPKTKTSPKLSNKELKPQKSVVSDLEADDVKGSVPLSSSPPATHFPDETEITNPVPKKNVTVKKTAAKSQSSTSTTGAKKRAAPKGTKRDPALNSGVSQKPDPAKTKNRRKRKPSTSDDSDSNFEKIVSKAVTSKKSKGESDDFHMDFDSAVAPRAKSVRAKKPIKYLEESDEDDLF

| SMILES | ∆G (kJ/mol) ITC (Topoisomerase II α human) | ∆H (kJ/mol) ITC (Topoisomerase II α human) | mode of action on human topoisomerase IIα (human topoisomerase IIα) | also measured |
| --- | --- | --- | --- | --- |
| O=C(C=Cc1ccc(O)c(O)c1)OC1CC(O)(C(=O)O)CC(OC(=O)C=Cc2ccc(O)c(O)c2)C1O (centres unmarked) [3,5-Di-O-caffeoylquinic acid] | −33.87 ± 1.39 ^a kJ/mol | −8.00 ± 0.45 ^c,a kJ/mol | – | – |
| O=C(C=Cc1ccc(O)c(O)c1)OC1CC(O)(C(=O)O)CC(O)C1OC(=O)C=Cc1ccc(O)c(O)c1 (centres unmarked) [4,5-Di-O-caffeoylquinic acid] | −37.64 ± 1.35 ^c kJ/mol | −1.78 ± 0.15 ^d kJ/mol | – | ∆G (kJ/mol) ITC (Topoisomerase II α human; [1]): -37.64 kJ/mol; ∆H (kJ/mol) ITC (Topoisomerase II α human; [1]): -1.78 kJ/mol |
| O=Cc1ccc(CO)o1 [5-(Hydroxymethyl)furfural] | – | – | – | interactions with TOPIIα in ITC measurements (Topoisomerase II α human): did not show significant interactions |
| C=CC(N)=O [Acrylamide] | – | – | – | interactions with TOPIIα in ITC measurements (Topoisomerase II α human): did not show significant interactions |
| O=C(O)/C=C/c1ccc(O)c(O)c1 [Caffeic acid] | −33.54 ± 1.09 ^a kJ/mol | −9.04 ± 0.25 ^a kJ/mol | – | – |
| Cn1c(=O)c2c(ncn2C)n(C)c1=O [Caffeine, reference compound] | −34.50 ± 1.15 ^d kJ/mol | −6.28 ± 0.45 ^e kJ/mol | – | – |
| O=C(O)CCc1ccc(O)c(O)c1 [Dihydrocaffeic acid] | −34.42 ± 1.33 ^d kJ/mol | −6.49 ± 0.29 ^e kJ/mol | – | – |
| O=c1c(O)c(-c2ccc(O)cc2)oc2cc(O)cc(O)c12 [kaempferol] | – | – | redox-dependent poisons rather than the enzyme inhibitors | – |
| O=c1c(O)c(-c2cc(O)c(O)c(O)c2)oc2cc(O)cc(O)c12 [myricetin] | – | – | redox-dependent poisons rather than the enzyme inhibitors | – |
| O=c1c(O)c(-c2ccc(O)c(O)c2)oc2cc(O)cc(O)c12 [quercetin] | – | – | redox-dependent poisons rather than the enzyme inhibitors | – |

Reference: paper PMC10457778, “Effects of In Vitro Digestion of Polyphenols from Coffee on Binding Parameters to Human Topoisomerase II α” (Molecules, 2023)
